Reference: patent US10208034B2, “Quinoline derivative” (ONO PHARMACEUTICAL CO., LTD., priority 2014, dated 2019)
pIC50: −log10 of the molar value.

Key:
[1] = molecular target: T1, Axl enzyme (Homo sapiens, UniProt P30530); assay: Measurement of Axl inhibitory activity (LanthaScreen TR-FRET, in vitro test); type: biochemical; settings: Fluorescein-Poly GT substrate
T1 sequence (P30530 26-894): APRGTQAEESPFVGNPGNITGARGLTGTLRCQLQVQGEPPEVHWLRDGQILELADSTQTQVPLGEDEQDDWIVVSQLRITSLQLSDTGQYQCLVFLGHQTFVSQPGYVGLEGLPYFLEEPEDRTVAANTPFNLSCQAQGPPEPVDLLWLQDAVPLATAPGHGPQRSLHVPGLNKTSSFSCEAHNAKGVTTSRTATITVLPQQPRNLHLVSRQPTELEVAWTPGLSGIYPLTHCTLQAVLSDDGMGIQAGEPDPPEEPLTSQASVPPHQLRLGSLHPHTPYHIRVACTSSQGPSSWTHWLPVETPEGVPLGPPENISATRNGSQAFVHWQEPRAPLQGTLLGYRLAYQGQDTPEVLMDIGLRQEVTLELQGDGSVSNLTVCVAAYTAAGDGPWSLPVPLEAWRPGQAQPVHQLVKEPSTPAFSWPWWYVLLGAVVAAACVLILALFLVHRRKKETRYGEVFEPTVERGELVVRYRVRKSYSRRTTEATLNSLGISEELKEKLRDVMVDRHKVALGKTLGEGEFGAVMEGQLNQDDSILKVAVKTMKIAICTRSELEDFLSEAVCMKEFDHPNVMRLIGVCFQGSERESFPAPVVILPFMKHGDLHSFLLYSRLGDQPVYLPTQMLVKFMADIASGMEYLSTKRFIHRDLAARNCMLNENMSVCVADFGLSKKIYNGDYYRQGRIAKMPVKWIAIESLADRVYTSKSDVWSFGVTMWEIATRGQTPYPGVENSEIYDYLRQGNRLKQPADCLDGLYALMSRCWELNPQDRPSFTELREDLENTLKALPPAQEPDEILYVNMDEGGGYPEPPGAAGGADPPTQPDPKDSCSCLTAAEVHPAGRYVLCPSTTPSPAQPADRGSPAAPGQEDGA
Method: Axl enzyme inhibitory activity was measured by using LanthaScreen (registered trademark) system (Invitrogen) based on the attached instruction. The reagents used are shown below.
Reaction buffer solution: a solution containing 50 mmol/L HEPES (pH7.5), 0.01% Brij35, 10 mmol/L MgCl2 and 1 mmol/L EGTA was prepared by using purified water.
Test substance solution: a solution containing a test compound of 5-fold concentration with respect to the final concentration was prepared by 20-fold diluting a DMSO solution of test compound of each concentration with the reaction buffer solution.
Enzyme solution: a solution containing 400 ng/mL Axl enzyme was prepared by using the reaction buffer solution.
Substrate solution: a solution containing 45 μmol/L ATP and 500 nmol/L Fluorescein-Poly GT (Invitrogen) was prepared by using the reaction buffer solution.
Detection solution: a solution containing 20 mM EDTA and 4 nM PY20 (Invitrogen) was prepared by using Dilution B (Invitrogen).
A 10 mmol/L DMSO solution of the test compound was dispensed into a 96-well plate (Nunc), and, furthermore, a 3-fold dilution series was prepared using DMSO. In each well of the 96-well plate for measurement, 5 μL each of the reaction buffer solution containing DMSO was added to a Blank group and a medium group, and 5 μL of the test substance solution was added to the test substance group, respectively. Next, 10 μL/well of the reaction buffer solution was added to the Blank group, and 10 μL/well each of the enzyme solution was added to the medium group and the test compound group, followed by stirring at room temperature for 10 min. After the completion of stirring, 10 μL each of the substrate solution was added into each well, followed by stirring at room temperature with light shielded for one hour. After the completion of reaction, 25 μL each of the detection solution was added to each well, and stood still at room temperature with light shielded for 30 min. After standing sill, fluorescence intensity at 520 nm and 495 nm at the time of irradiation with exciting light of 340 nm was measured by using Analyst GT (Molecular Devices). The phosphorylation of the artificial substrate was quantified by Time-resolved Fluorescence Resonance Energy Transfer (TR-FRET). TR-FRET ratio was calculated by dividing 520 nm fluorescence signal by 495 nm fluorescence signal for each well, and the inhibition rate (%) in the test compound group was calculated based on the following mathematical formula. Inhibition rate (%)=[1−(TR-FRET ratio of test compound group−A)/(B−A)×100 [Math. 1] A: average value of TR-FRET ratios of Blank group B: average value of TR-FRET ratios of medium group
Values of 50% inhibition rate (IC50 values) of the test compound were calculated from the inhibition curve based on the inhibition rate of the test compounds in each concentration.

[2] = molecular target: T2, Ba/F3 Axl (Homo sapiens, UniProt P30530); assay: Proliferation suppression rate using mouse pro-B cell line (Ba/F3 Axl) stably expressing Axl (CellTiter-Glo); type: cell-based; settings: Ba/F3 Axl cells, 48 hours, read-out: IC50 value of proliferation suppression, Ba/F3 Axl
T2 sequence (P30530 1-894): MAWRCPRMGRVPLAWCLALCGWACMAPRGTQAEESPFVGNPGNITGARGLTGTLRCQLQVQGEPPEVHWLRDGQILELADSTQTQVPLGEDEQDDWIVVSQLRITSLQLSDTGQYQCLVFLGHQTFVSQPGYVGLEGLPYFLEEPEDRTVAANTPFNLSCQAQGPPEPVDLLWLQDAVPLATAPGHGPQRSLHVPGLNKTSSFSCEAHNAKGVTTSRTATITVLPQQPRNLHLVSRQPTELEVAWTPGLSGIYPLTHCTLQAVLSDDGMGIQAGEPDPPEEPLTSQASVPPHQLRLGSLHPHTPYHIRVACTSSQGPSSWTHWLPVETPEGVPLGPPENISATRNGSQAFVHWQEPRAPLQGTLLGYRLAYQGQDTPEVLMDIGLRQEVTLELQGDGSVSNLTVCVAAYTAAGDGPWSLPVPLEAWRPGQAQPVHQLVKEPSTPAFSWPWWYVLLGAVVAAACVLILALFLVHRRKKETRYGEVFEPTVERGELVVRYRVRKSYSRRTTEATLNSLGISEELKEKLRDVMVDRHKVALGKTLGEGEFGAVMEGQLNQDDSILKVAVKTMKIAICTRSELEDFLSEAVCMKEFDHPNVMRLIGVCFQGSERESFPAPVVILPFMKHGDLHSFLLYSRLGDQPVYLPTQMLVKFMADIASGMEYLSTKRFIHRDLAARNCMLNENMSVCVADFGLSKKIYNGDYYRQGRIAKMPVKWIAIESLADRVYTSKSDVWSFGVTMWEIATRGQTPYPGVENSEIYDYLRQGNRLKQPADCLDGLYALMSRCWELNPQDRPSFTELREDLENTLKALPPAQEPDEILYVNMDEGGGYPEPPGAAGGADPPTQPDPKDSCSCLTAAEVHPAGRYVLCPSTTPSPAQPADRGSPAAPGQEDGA
Method: A 0.1 mmol/L DMSO solution of the test compound was dispensed into a 96-well plate, and a 3-fold dilution series was prepared using DMSO. DMSO solutions of test compounds, having various concentrations, were further 500-fold diluted with a RPMI1640 medium (containing 10% HI-FBS, 1% penicillin) and a diluted solution of the test compound having […] with respect to the final concentration was prepared. In each well of the 96-well plate (BD Biosciences) for measurement, 50 μL of a RPMI medium was added to the Blank group, 50 μL of a RPMI medium containing 0.2% DMSO was added to the medium group, and 50 μL of the diluted solution of the test compound was added to the test compound group, respectively. Ba/F3 Axl was diluted with a medium to have a density of 2×10^5 cells/mL to prepare a cell suspension. In each well of the 96-well plate for measurement, 50 μL each of the RPMI medium was added to the Blank group, and 50 μL each of the cell suspension to the medium group and the test compound group, respectively, and the groups were stood still at 37° C. at 5% CO2 for 48 hours. After standing still, Relative Light Unit (RLU) was measured by using CELLTITER-GLO (registered trademark) LUMINESCENT CELL VIABILITY ASSAY (Promega). The measurement was carried out according to the attached instruction. To each well, 100 μL each of light-emitting solution was added. The plate was stirred at room temperature for 3 min and then stool still at room temperature with light shielded for 10 min, and RLU was measured by using Microplate Reader (SpectraMax M5e, Molecular Devices). The average values of RLU of the Blank group and the medium group were respectively calculated, and the proliferation suppression rate of the test compound group was calculated. Proliferation suppression rate (%)={1−(RLU of test compound group−A)/(B−A)}×100 [Math. 2] A: average value of RLU of Blank group B: average value of RLU of medium group
A value of 50% inhibition rate (IC50 value) of the test compound was calculated from the inhibition curve based on the inhibition rate in each concentration of the test compound.

[3] = molecular target: KDR kinase (Homo sapiens, UniProt P35968); assay: Evaluation of kinase selectivity (KDR kinase IC50 versus Axl IC50, in vitro test); type: biochemical; settings: Axl selective inhibitory activity with respect to KDR kinase, ratio of IC50 values
Method: Similar to Biological Example 1, values of 50% inhibition rate (IC50 value) with respect to the KDR kinase of the test compound was measured. The Axl selective inhibitory activity of the test compound with respect to KDR kinase was calculated based on the above-mentioned ratio of the IC50 values. As the test compounds, for the compounds of the present invention, the compounds of Examples 21, 42, 66, and 28 were used, and for the comparative compounds, the compound of Example 74 (Comparative compound B) and the compound of Example 92 (Comparative compound C) described in Patent Literature 5, having the following structure, were used.

KDR kinase, sequence (P35968 20-1356): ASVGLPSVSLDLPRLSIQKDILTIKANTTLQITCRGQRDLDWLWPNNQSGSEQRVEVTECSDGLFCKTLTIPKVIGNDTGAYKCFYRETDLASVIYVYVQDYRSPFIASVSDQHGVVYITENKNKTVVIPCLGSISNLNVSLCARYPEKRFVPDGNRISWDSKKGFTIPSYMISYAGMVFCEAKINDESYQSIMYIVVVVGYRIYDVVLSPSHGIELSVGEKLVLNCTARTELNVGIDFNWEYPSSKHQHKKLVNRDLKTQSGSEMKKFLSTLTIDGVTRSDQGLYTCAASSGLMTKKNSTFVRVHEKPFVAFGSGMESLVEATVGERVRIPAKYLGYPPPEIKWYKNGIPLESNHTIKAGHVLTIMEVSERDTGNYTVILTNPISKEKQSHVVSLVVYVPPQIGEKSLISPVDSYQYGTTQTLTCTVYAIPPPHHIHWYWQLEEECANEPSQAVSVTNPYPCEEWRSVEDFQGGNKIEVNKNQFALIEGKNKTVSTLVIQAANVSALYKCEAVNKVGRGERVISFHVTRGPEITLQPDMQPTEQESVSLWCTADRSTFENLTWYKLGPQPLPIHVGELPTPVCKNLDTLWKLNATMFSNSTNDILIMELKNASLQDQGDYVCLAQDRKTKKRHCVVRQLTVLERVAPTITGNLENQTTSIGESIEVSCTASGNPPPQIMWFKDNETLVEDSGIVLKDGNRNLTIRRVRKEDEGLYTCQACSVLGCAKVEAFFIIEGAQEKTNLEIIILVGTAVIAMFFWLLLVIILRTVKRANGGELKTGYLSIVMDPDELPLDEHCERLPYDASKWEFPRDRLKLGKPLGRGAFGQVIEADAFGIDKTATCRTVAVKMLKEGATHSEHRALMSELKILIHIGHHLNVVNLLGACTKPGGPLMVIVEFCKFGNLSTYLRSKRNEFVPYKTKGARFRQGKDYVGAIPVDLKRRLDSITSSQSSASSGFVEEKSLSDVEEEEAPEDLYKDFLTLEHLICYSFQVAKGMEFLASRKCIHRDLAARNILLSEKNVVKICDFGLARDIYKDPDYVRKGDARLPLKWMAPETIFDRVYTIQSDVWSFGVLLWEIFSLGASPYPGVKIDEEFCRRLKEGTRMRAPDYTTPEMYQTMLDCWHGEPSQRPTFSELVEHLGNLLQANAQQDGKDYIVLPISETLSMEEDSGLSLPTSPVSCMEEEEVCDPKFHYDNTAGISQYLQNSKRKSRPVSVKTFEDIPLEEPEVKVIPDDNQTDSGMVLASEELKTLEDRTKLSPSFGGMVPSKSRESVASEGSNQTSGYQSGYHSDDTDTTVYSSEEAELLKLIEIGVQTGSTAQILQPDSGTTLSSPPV

SMILES	pIC50 [1]	GI50 [2]	KDR [IC50]/Ax1 [IC50] [3]
COc1cc2nccc(Oc3ccc(NC(=O)c4cc5ccccc5[nH]c4=O)cc3)c2cc1OC [Comparative compound A, reference compound]	< 5.00	> 10000 nM	
COc1cc2c(Oc3ccc(NC(=O)c4ccnn(-c5ccc(F)cc5)c4=O)cn3)ccnc2cc1OCCCN1CCOCC1 [Comparative compound C, reference compound]			about 28 times
COc1cc2c(Oc3ccc(NC(=O)c4cccc5cccnc45)cc3F)ccnc2cc1OCCCN1CCOCC1 [Comparative compound B, reference compound]			about 0.2 times

Now from value to compound:

pIC50 [1]	GI50 [2]	KDR [IC50]/Ax1 [IC50] [3]	SMILES
8.82	0.47 nM		CC#CC(=O)N1CCc2cc(C(=O)Nc3ccc(Oc4ccnc5cc(OC)c(OC)cc45)cn3)c(=O)n(-c3ccccc3)c2C1 [Example 36, 7-(2-butynoyl)-N-{5-[(6,7-dimethoxy-4-quinolinyl)oxy]-2-pyridinyl}-2-oxo-1-phenyl-1,2,5,6,7,8-hexahydro-1,7-naphthyridine-3-carboxamide]
8.40	0.76 nM		COc1cc2nccc(Oc3ccc(NC(=O)c4cc5ccc(N)cc5n(-c5ccccc5)c4=O)nc3)c2cc1OC [Example 73, 7-amino-N-{5-[(6,7-dimethoxy-4-quinolinyl)oxy]-2-pyridinyl}-2-oxo-1-phenyl-1,2-dihydro-3-quinolinecarboxamide]
